Assay results published in patent US11447466B2, “Substituted indole compounds useful as inhibitors of TLR7/8/9” (BRISTOL-MYERS SQUIBB COMPANY, priority 2017, dated 2022).

Legend:
Type in all cases: cell-based
human TLR8 = molecular target: T1, human TLR8 (Homo sapiens, UniProt Q9NR97); experiment: TLR8 inhibition reporter assay (HEK-Blue SEAP reporter, R848 stimulation); settings: HEK-Blue cells overexpressing human TLR8, SEAP reporter, R848 15.9 μM, 22 hour incubation
T1 construct: host or cells: HEK-Blue cells
T1 sequence (Q9NR97 27-1041): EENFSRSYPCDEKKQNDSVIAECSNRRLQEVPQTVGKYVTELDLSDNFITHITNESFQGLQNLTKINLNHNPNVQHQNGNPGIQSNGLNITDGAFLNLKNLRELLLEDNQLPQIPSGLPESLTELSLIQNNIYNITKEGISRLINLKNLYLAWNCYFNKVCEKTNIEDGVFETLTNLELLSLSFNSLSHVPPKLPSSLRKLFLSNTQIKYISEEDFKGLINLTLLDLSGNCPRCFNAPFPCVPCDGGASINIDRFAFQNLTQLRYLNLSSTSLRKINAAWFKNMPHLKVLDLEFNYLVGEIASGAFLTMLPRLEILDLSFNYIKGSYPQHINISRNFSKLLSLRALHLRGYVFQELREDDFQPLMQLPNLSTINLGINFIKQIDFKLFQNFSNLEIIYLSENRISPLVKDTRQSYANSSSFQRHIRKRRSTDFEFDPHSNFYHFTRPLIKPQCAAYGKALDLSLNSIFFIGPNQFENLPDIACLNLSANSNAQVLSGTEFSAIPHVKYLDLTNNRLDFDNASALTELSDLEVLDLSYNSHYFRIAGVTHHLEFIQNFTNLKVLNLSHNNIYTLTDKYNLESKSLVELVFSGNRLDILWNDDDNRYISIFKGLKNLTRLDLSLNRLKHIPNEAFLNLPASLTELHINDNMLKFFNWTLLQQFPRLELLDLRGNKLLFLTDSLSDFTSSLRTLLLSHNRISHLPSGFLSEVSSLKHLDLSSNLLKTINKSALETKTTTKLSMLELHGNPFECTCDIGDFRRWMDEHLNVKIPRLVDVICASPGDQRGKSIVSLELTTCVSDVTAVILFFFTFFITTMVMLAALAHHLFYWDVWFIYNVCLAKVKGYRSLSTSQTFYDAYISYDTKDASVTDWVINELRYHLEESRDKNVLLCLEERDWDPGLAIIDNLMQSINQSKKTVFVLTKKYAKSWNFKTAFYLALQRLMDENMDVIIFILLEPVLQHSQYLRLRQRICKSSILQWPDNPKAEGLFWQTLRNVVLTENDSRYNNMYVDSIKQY
In short: (§1)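 Dose–response from 0.05 nM to 50 μM was run in HEK-Blue human TLR7, TLR8 and TLR9 reporter cells. After 30 min at room temperature with compound, ligand was added (TLR7 gardiquimod 7.5 μM; TLR8 R848 15.9 μM; TLR9 ODN2006 5 nM) and SEAP measured next day, at 22 h.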

human TLR7 = molecular target: T2, human TLR7 (Homo sapiens, UniProt Q9NYK1); experiment: TLR7 inhibition reporter assay (HEK-Blue SEAP reporter, gardiquimod stimulation); settings: HEK-Blue cells overexpressing human TLR7, SEAP reporter, gardiquimod 7.5 μM, 22 hour incubation
T2 construct: host or cells: HEK-Blue cells
T2 sequence (Q9NYK1 27-1049): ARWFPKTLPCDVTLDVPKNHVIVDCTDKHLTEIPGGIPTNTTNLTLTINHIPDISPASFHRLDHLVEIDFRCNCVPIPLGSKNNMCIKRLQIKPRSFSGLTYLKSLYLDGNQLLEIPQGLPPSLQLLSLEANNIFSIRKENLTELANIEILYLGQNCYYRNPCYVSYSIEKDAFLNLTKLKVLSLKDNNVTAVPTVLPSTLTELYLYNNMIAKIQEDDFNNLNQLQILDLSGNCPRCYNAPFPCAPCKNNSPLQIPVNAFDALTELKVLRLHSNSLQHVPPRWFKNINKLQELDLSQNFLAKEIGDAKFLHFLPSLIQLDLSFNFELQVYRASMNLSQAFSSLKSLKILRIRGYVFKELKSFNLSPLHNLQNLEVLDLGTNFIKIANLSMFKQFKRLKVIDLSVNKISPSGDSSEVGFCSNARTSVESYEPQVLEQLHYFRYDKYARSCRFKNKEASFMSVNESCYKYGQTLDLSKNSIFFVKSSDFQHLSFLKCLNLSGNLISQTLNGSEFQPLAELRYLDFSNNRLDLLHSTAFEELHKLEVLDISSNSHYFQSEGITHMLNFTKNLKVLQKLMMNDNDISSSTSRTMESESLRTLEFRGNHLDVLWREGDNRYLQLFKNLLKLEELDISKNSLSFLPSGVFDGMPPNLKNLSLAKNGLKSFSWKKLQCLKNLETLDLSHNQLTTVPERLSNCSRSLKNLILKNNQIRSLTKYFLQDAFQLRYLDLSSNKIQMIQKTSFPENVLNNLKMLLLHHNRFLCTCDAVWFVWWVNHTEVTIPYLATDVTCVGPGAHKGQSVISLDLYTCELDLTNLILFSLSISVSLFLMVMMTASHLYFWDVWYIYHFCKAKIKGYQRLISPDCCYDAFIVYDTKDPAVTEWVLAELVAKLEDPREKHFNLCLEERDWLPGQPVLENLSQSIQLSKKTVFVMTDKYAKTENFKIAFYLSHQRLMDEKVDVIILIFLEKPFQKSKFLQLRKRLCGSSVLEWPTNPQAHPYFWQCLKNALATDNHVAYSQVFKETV
In short: as §1

human TLR9 = molecular target: T3, human TLR9 (Homo sapiens, UniProt Q9NR96); experiment: TLR9 inhibition reporter assay (HEK-Blue SEAP reporter, ODN2006 stimulation); settings: HEK-Blue cells overexpressing human TLR9, SEAP reporter, ODN2006 5 nM, 22 hour incubation
T3 construct: host or cells: HEK-Blue cells
T3 sequence (Q9NR96 26-1032): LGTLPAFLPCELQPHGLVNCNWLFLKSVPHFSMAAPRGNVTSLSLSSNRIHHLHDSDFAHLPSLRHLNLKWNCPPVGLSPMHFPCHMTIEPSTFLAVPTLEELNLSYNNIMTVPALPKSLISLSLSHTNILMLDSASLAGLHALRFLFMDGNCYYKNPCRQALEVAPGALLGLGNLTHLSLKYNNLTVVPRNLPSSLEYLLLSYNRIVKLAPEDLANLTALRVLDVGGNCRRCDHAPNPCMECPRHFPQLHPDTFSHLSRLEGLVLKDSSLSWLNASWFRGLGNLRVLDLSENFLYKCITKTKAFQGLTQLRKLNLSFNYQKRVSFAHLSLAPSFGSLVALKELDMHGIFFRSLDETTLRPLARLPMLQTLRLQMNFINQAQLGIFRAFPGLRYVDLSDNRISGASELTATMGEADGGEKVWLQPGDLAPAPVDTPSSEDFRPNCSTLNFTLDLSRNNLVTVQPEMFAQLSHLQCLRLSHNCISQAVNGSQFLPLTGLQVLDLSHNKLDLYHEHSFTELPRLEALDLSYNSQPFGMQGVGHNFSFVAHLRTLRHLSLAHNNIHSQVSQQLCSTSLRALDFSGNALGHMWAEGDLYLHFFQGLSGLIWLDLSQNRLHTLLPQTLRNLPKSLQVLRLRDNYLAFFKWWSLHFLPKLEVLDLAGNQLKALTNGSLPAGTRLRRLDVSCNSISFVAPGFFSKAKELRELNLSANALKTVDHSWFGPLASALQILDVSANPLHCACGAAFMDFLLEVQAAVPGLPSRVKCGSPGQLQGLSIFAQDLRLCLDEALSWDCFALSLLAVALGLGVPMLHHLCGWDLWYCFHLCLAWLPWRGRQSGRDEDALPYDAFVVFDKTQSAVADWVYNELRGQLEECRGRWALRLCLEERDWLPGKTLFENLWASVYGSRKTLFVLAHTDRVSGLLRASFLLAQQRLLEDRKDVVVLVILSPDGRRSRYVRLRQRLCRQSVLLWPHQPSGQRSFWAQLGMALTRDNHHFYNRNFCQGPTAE
In short: as §1

Row | SMILES | IC50 (human TLR8) [nM] | IC50 (human TLR7) [nM] | IC50 (human TLR9) [nM]
1 | Cc1cc(-c2[nH]c3ccc(C4CCN(C(=O)[C@H]5NCC[C@@H]5O)CC4)cc3c2C(C)C)cn(C)c1=O [Example 291, 5-(5-(1-((2S,3S)-3-hydroxypyrrolidine-2-carbonyl)piperidin-4-yl)-3-isopropyl-1H-indol-2-yl)-1,3-dimethylpyridin-2(1H)-one] | 11.2 | 12.3 | 1420
2 | CN[C@@H](C)C(=O)N1CCC(c2ccc3[nH]c(-c4cc(C)c(=O)n(C)c4)c(C(C)C)c3c2)CC1 [Example 297, 5-(3-isopropyl-5-(1-(methyl-L-alanyl)piperidin-4-yl)-1H-indol-2-yl)-1,3-dimethylpyridin-2(1H)-one] | 5.5 | 4.4 | 3990
3 | CNC(C)(C)C(=O)N1CCC(c2ccc3[nH]c(-c4cc(C)c(=O)n(C)c4)c(C(C)C)c3c2)CC1 [Example 298, 5-(3-isopropyl-5-(1-(2-methyl-2-(methylamino)propanoyl)piperidin-4-yl)-1H-indol-2-yl)-1,3-dimethylpyridin-2(1H)-one] | 148 | 169 | 21300
4 | Cc1cc(-c2[nH]c3ccc(C4CCN(C(=O)CN5CCCC5=O)CC4)cc3c2C(C)C)cn(C)c1=O [Example 300, 5-(3-isopropyl-5-(1-(2-(2-oxopyrrolidin-1-yl)acetyl)piperidin-4-yl)-1H-indol-2-yl)-1,3-dimethylpyridin-2(1H)-one] | 42.5 | 42.6 | ≥ 50000
5 | Cc1c(-c2[nH]c3ccc(C4CCN(C(=O)C(F)(F)F)CC4)cc3c2C(C)C)cn(C)c(=O)c1Cl [Example 302, 3-chloro-5-(3-isopropyl-5-(1-(2,2,2-trifluoroacetyl)piperidin-4-yl)-1H-indol-2-yl)-1,4-dimethylpyridin-2(1H)-one] | 214 | 20.4 | ≥ 50000
6 | Cc1cc(-c2[nH]c3ccc(C4CCN(C(=O)C[C@H]5CCCN5)CC4)cc3c2C(C)C)cn(C)c1=O [Example 306, (R)-5-(3-isopropyl-5-(1-(2-(pyrrolidin-2-yl)acetyl)piperidin-4-yl)-1H-indol-2-yl)-1,3-dimethylpyridin-2(1H)-one] | 26.9 | 16.5 | 547

More lines, now with the values ahead:

Row | IC50 (human TLR8) [nM] | IC50 (human TLR7) [nM] | IC50 (human TLR9) [nM] | SMILES
7 | 16.9 | 12.5 | 3320 | Cc1cc(-c2[nH]c3ccc(C4CCN(C(=O)CN(C)C)CC4)cc3c2C(C)C)nn(C)c1=O [Example 294, 6-(5-(1-(dimethylglycyl)piperidin-4-yl)-3-isopropyl-1H-indol-2-yl)-2,4-dimethylpyridazin-3(2H)-one]
8 | 61.9 | 114 | 9690 | Cc1nc(-c2[nH]c3ccc(C4CCN(C(=O)CN(C)C)CC4)cc3c2C(C)C)cn(C)c1=O [Example 295, 5-(5-(1-(dimethylglycyl)piperidin-4-yl)-3-isopropyl-1H-indol-2-yl)-1,3-dimethylpyrazin-2(1H)-one]
9 | 3 | 1.1 | 4310 | Cc1cc(-c2[nH]c3ccc(C4CCN(C(=O)C(C)(C)N)CC4)cc3c2C(C)C)cn(C)c1=O [Example 296, 5-(5-(1-(2-amino-2-methylpropanoyl)piperidin-4-yl)-3-isopropyl-1H-indol-2-yl)-1,3-dimethylpyridin-2(1H)-one]
10 | 4.3 | 3.7 | 504 | CN[C@H](C)C(=O)N1CCC(c2ccc3[nH]c(-c4cc(C)c(=O)n(C)c4)c(C(C)C)c3c2)CC1 [Example 299, 5-(3-isopropyl-5-(1-(methyl-D-alanyl)piperidin-4-yl)-1H-indol-2-yl)-1,3-dimethylpyridin-2(1H)-one]
11 | 36.5 | 25.7 | 1830 | CC(C)c1c(-c2ccc(=O)n(C)c2)[nH]c2ccc(C3CCN(C(=O)CN(C)C)CC3)cc12 [Example 301, 5-(5-(1-(dimethylglycyl)piperidin-4-yl)-3-isopropyl-1H-indol-2-yl)-1-methylpyridin-2(1H)-one]
12 | 49.9 | 9.6 | ≥ 50000 | Cc1cc(-c2[nH]c3ccc(C4CCN(C(=O)CC(C)(C)O)CC4)cc3c2C(C)C)cn(C)c1=O [Example 303, 5-(5-(1-(3-hydroxy-3-methylbutanoyl)piperidin-4-yl)-3-isopropyl-1H-indol-2-yl)-1,3-dimethylpyridin-2(1H)-one]
13 | 80 | 7.8 | ≥ 50000 | Cc1cc(-c2[nH]c3ccc(C4CCN(C(=O)C(C)(C)CO)CC4)cc3c2C(C)C)cn(C)c1=O [Example 304, 5-(5-(1-(3-hydroxy-2,2-dimethylpropanoyl)piperidin-4-yl)-3-isopropyl-1H-indol-2-yl)-1,3-dimethylpyridin-2(1H)-one]
14 | 97.5 | 11 | ≥ 50000 | Cc1cc(-c2[nH]c3ccc(C4CCN(C(=O)C[C@H](C)O)CC4)cc3c2C(C)C)cn(C)c1=O [Example 305, (S)-5-(5-(1-(3-hydroxybutanoyl)piperidin-4-yl)-3-isopropyl-1H-indol-2-yl)-1,3-dimethylpyridin-2(1H)-one]
